The record followed here is US8691828B2, “Thienopyrimidine as CDC7 kinase inhibitors” (Takeda Pharmaceutical Company Limited, priority 2009, dated 2014).

The target of one test is T1, cdc7/Dbf4 (Homo sapiens, UniProt O00311).
T1 construct: Full-length cdc7 co-expressed with full-length Dbf4; purchased Carna Bioscience, Inc. (Kobe, Japan)
The test is described as follows: Determination of cdc7 kinase inhibitory activity (HTRF Transcreener ADP assay). It counts as biochemical. Conditions: test compound 1 μM; 1.0 μM ATP, 10 μg/ml MCM2, 0.1 μg/ml cdc7/Dbf4, 90 min at room temperature; read-out: Inhibitory rate (%) at 1 μM. As to the method: Full-length cdc7 co-expressed with full-length Dbf4 was purchased from Carna Bioscience, Inc. (Kobe, Japan). Homogeneous time-resolved fluorescence (HTRF) Transcreener ADP assay (Cisbio Inc., MA., U.S.A.) was used for detecting cdc7/Dbf4 kinase activity. Reactions were performed in kinase buffer (20 mM HEPES, pH 7.5, 10 mM magnesium acetate, 1 mM dithiothreitol) containing 1.0 μM ATP, 10 μg/ml MCM2, 0.1 μg/ml cdc7/Dbf4 for 90 min at room temperature. Free ADP from the ATP hydrolysis reaction was detected by the monoclonal ADP antibody labeled with Eu^3+-Cryptate, which competes with both native ADP and d2-coupled ADP. The TR-FRET signal was detected by EnVision (PerkinElmer Inc., MA, U.S.A.). Cdc7 kinase inhibitory rate (%) of the test compound was calculated by the following formula: Inhibitory rate(%)=(1−(count of test compound−blank)÷(control−blank))×100
The count of the solution reacted without addition of the compound was used as a “control”, and the count of the solution without the compound and cdc7/Dbf4 was used as a “blank”.
A general note: TR-FRET usually uses a lanthanide donor and a delayed reading to cut background.

The subject of the next test is Colo205 cells. Description: Determination of cell proliferation inhibitory activity (Cell Titer-Glo Luminescent Cell Viability Assay). Format: cell-based. Conditions: Homo sapiens, COLO 205, 72 h, test compound 1 μM, incubation for 3 days, cellular ATP content, read-out: Inhibitory rate (%) at 1 μM. As to the method:
Cell proliferation was measured by using Cell Titer-Glo Luminescent Cell Viability Assay (Promega, Wis., USA,). The CellTiter-Glo Luminescent Cell Viability Assay is a homogeneous method of determining the number of viable cells in culture based on quantitation of the ATP present, which signals the presence of metabolically active cells. Colo205 cells (American Type Culture Collection) were sown at 3.0×10^3 cells/well to a 96 well microplate and cultured in an incubator (37° C., 5% carbon dioxide). On the following day, 100 μl of a solution of each test compound, which was previously diluted, was added. According to the instruction manual from vender, cellular ATP content of final treatment day was measured. After incubation for 3 days, solution of Cell Titer-Glo Luminescent Cell Viability Assay was added to each well and incubated for approximately 15 min at room temperature. Luminescence of each well was measured by ARVO Light (PerkinElmer Inc., MA, USA). Taking as 100% the ATP content for the none compound treatment control group, the ratio of the residual ATP content for each treatment group was determined.
On the technique in general: In ATP-based viability assays light output follows the ATP content of the culture.

T1 sequence (O00311 whole entry): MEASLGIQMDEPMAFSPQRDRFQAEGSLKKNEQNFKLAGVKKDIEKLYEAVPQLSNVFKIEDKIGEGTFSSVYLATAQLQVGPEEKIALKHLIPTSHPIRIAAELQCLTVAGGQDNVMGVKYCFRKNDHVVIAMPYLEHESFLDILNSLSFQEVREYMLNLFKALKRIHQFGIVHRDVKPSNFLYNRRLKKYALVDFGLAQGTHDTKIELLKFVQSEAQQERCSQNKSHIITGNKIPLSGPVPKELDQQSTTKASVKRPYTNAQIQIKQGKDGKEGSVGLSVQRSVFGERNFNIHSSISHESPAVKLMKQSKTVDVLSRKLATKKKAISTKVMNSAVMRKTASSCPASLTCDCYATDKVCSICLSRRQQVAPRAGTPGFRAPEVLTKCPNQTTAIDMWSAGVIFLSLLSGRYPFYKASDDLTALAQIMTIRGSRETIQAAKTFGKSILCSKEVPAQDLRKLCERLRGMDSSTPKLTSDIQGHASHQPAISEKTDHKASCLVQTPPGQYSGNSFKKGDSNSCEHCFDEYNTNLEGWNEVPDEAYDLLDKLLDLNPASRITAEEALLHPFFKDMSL
T1 sequence (Q9UBU7 whole entry partner): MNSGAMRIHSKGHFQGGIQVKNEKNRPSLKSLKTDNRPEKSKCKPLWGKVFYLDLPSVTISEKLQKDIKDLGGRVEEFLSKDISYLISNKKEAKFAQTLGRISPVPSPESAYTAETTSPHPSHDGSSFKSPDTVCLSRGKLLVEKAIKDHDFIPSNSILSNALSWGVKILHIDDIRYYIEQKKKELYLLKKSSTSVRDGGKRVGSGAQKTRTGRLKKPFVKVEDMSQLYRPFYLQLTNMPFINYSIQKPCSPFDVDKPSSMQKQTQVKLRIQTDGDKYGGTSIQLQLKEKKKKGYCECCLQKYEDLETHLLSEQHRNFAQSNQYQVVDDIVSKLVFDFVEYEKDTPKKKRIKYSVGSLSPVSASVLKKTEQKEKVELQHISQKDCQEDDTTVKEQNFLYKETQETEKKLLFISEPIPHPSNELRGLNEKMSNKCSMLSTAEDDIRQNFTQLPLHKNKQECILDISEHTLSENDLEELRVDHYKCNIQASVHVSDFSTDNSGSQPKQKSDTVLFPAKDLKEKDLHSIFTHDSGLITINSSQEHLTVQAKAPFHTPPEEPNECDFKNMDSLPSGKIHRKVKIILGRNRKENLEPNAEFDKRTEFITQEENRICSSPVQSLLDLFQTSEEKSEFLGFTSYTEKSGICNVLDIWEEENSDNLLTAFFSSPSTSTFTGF

On to `CCN1c2cc(-c3ccncc3)sc2C(=O)NC12CCCC2` [Example 27, 1′-ethyl-6′-(pyridin-4-yl)-1′H-spiro [cyclopentane-1,2′-thieno[3,2-d]pyrimidin]-4′(3′H)-one], for which the inhibition at 1 µM on cdc7/Dbf4 was found to be 101%; in the test on Colo205 cells, 59.6%. Regarding `Cc1[nH]ncc1-c1cc2c(s1)C(=O)NC(C)(CC(F)(F)F)N2C` (stereo not shown) [Example 104, 1,2-dimethyl-6-(5-methyl-1H-pyrazol-4-yl)-2-(2,2,2-trifluoroethyl)-2,3-dihydrothieno[3,2-d]pyrimidin-4(1H)-one], the figures for the inhibition at 1 µM on cdc7/Dbf4 and with Colo205 cells were 101% and 62.9%, respectively. Take `O=C1NC2(CCN(C(=O)OCc3ccccc3)CC2)Nc2cc(-c3ccncc3)sc21` [Example 9, benzyl 4′-oxo-6′-(pyridin-4-yl)-3′,4′-dihydro-1′H-spiro[piperidine-4,2′-thieno[3,2-d]pyrimidine]-1-carboxylate]: the inhibition at 1 µM at cdc7/Dbf4 worked out at 103%.

Turning to `Cc1[nH]ncc1-c1cc2c(s1)C(=O)NC1(CCCCC1F)N2` (stereo not shown) [Example 122, 2-fluoro-6′-(5-methyl-1H-pyrazol-4-yl)-1′H-spiro [cyclohexane-1,2′-thieno[3,2-d]pyrimidin]-4′(3′H)-one], the inhibition at 1 µM at cdc7/Dbf4 came to 91.8%; in the test on Colo205 cells, 48.9%.

In the case of `CCN1c2cc(-c3cn[nH]c3C)sc2C(=O)NC1(C)C` [Example 114, 1-ethyl-2,2-dimethyl-6-(5-methyl-1H-pyrazol-4-yl)-2,3-dihydrothieno[3,2-d]pyrimidin-4(1H)-one], in the test with Colo205 cells, the inhibition at 1 µM stood at 67.4%.

For `Cc1[nH]ncc1-c1cc2c(s1)C(=O)NC(C)(C)N2CC(F)F` [Example 115, 1-(2,2-difluoroethyl)-2,2-dimethyl-6-(5-methyl-1H-pyrazol-4-yl)-2,3-dihydrothieno[3,2-d]pyrimidin-4(1H)-one], in the test with Colo205 cells, the inhibition at 1 µM stood at 66.1%.

Regarding `CC1(C)NC(=O)c2sc(-c3cn[nH]c3)cc2N1` [Example 34, 2,2-dimethyl-6-(1H-pyrazol-4-yl)-2,3-dihydrothieno[3,2-d]pyrimidin-4(1H)-one], on cdc7/Dbf4, the inhibition at 1 µM amounted to 104%.

For `O=C1NC2(CCCCC2)Nc2cc(-c3ccncc3)sc21` [Example 6, 6′-(pyridin-4-yl)-1′H-spiro[cyclohexane-1,2′-thieno[3,2-d]pyrimidin]-4′(3′H)-one], on cdc7/Dbf4, the inhibition at 1 µM is 98.5%.

For `CC1(CC(F)(F)F)NC(=O)c2sc(-c3ccncc3)cc2N1` (stereo not shown) [Example 22, 2-methyl-6-(pyridin-4-yl)-2-(2,2,2-trifluoroethyl)-2,3-dihydrothieno[3,2-d]pyrimidin-4(1H)-one], the inhibition at 1 µM at cdc7/Dbf4 amounted to 97.1%. Same read-out and setting: in the case of `CCN1c2cc(-c3ccncc3)sc2C(=O)NC1(C)C` [Example 15, 1-ethyl-2,2-dimethyl-6-(pyridin-4-yl)-2,3-dihydrothieno[3,2-d]pyrimidin-4(1H)-one] it was 97.6%.
